Results reported in the NIST ThermoML archive (doi:10.1016/j.jct.2005.12.005).
Numbers after ± are expanded uncertainties.

Experiments:
[1] = xn = mol fraction of the nth substance listed; conditions: 101 kPa, Liquid; for speed of sound: Sing-around technique in a fixed-path interferometer
[2] = refractive index (Na D-line) (dimensionless); xn = mol fraction of the nth substance listed; conditions: 101 kPa, Liquid

Cc1cc(C)cc(C)c1 [1,3,5-trimethylbenzene] + CC1CCCCC1
Conditions | mass density, 298.15 K [kg/m3] | mass density, 303.15 K [kg/m3] | mass density, 308.15 K [kg/m3] | refractive index, 298.15 K | refractive index, 303.15 K | refractive index, 308.15 K | speed of sound, 298.15 K [m/s] | viscosity, 298.15 K [mPa·s] | viscosity, 303.15 K [mPa·s] | viscosity, 308.15 K [mPa·s]
[1], x2 = 0 | 861.2 ± 1.1 | 857.1 ± 1.1 | 853 ± 1.1 | – | – | – | 1346 ± 6 | 0.667 ± 0.011 | 0.622 ± 0.01 | 0.586 ± 0.01
[1], x2 = 0.1007 | 851.6 ± 1.1 | 847.5 ± 1.1 | 843.3 ± 1.1 | – | – | – | 1328 ± 6 | 0.653 ± 0.011 | 0.612 ± 0.01 | 0.577 ± 0.01
[1], x2 = 0.1993 | 842 ± 1 | 837.9 ± 1 | 833.8 ± 1 | – | – | – | 1312 ± 6 | 0.638 ± 0.01 | 0.6 ± 0.01 | 0.569 ± 0.009
[1], x2 = 0.3035 | 832 ± 1 | 827.9 ± 1 | 823.7 ± 1 | – | – | – | 1295 ± 6 | 0.629 ± 0.01 | 0.592 ± 0.009 | 0.559 ± 0.009
[1], x2 = 0.4063 | 822 ± 0.9 | 817.9 ± 1 | 813.7 ± 1 | – | – | – | 1280 ± 5 | 0.622 ± 0.01 | 0.584 ± 0.009 | 0.553 ± 0.009
[1], x2 = 0.4974 | 813.1 ± 0.9 | 808.9 ± 0.9 | 804.8 ± 0.9 | – | – | – | 1267 ± 5 | 0.62 ± 0.009 | 0.603 ± 0.03 | 0.547 ± 0.009
[1], x2 = 0.6085 | 802.2 ± 0.9 | 798.1 ± 0.9 | 793.9 ± 0.9 | – | – | – | 1253 ± 5 | 0.621 ± 0.009 | 0.582 ± 0.009 | 0.548 ± 0.008
[1], x2 = 0.7027 | 793.1 ± 0.9 | 788.9 ± 0.9 | 784.7 ± 0.9 | – | – | – | 1244 ± 5 | 0.627 ± 0.009 | 0.588 ± 0.009 | 0.553 ± 0.008
[1], x2 = 0.7973 | 784 ± 0.9 | 779.7 ± 0.9 | 775.5 ± 0.9 | – | – | – | 1235 ± 5 | 0.638 ± 0.009 | 0.598 ± 0.009 | 0.566 ± 0.008
[1], x2 = 0.902 | 774.1 ± 0.9 | 769.8 ± 0.9 | 765.6 ± 0.9 | – | – | – | 1225 ± 5 | 0.654 ± 0.009 | 0.622 ± 0.009 | 0.575 ± 0.008
[2], x2 = 0 | – | – | – | 1.496 ± 0.0025 | 1.4936 ± 0.0025 | 1.4913 ± 0.0025 | – | – | – | –
[2], x2 = 0.1007 | – | – | – | 1.489 ± 0.0025 | 1.4865 ± 0.0025 | 1.4843 ± 0.0025 | – | – | – | –
[2], x2 = 0.1993 | – | – | – | 1.4817 ± 0.0025 | 1.4809 ± 0.0025 | 1.4771 ± 0.0025 | – | – | – | –
[2], x2 = 0.3035 | – | – | – | 1.474 ± 0.0025 | 1.473 ± 0.0025 | 1.4692 ± 0.0025 | – | – | – | –
[2], x2 = 0.4063 | – | – | – | 1.4663 ± 0.0025 | 1.4647 ± 0.0025 | 1.4614 ± 0.0025 | – | – | – | –
[2], x2 = 0.4974 | – | – | – | 1.4593 ± 0.0025 | 1.4565 ± 0.0025 | 1.4544 ± 0.0025 | – | – | – | –
[2], x2 = 0.6085 | – | – | – | 1.4508 ± 0.0025 | 1.4529 ± 0.008 | 1.4459 ± 0.0025 | – | – | – | –
[2], x2 = 0.7027 | – | – | – | 1.4436 ± 0.0025 | 1.4421 ± 0.0025 | 1.4386 ± 0.0025 | – | – | – | –
[2], x2 = 0.7973 | – | – | – | 1.4363 ± 0.0025 | 1.4347 ± 0.0025 | 1.4312 ± 0.0025 | – | – | – | –
[2], x2 = 0.902 | – | – | – | 1.4285 ± 0.0025 | 1.4265 ± 0.0025 | 1.4233 ± 0.0025 | – | – | – | –

Cc1ccc(C)cc1 [1,4-dimethylbenzene] + CC1CCCCC1
x2 = 0
Conditions | mass density, 298.15 K [kg/m3] | mass density, 303.15 K [kg/m3] | mass density, 308.15 K [kg/m3] | refractive index, 298.15 K | refractive index, 303.15 K | refractive index, 308.15 K | speed of sound, 298.15 K [m/s] | viscosity, 298.15 K [mPa·s] | viscosity, 303.15 K [mPa·s] | viscosity, 308.15 K [mPa·s]
[1] | 856.7 ± 0.9 | 852.3 ± 0.9 | 848 ± 0.9 | – | – | – | 1326 ± 6 | 0.611 ± 0.009 | 0.572 ± 0.009 | 0.54 ± 0.008
[2] | – | – | – | 1.4926 ± 0.001 | 1.4893 ± 0.001 | 1.4867 ± 0.001 | – | – | – | –

COc1ccccc1 [anisole] + CC1CCCCC1
Conditions | mass density, 298.15 K [kg/m3] | mass density, 303.15 K [kg/m3] | mass density, 308.15 K [kg/m3] | refractive index, 298.15 K | refractive index, 303.15 K | refractive index, 308.15 K | speed of sound, 298.15 K [m/s] | viscosity, 298.15 K [mPa·s] | viscosity, 303.15 K [mPa·s] | viscosity, 308.15 K [mPa·s]
[1], x2 = 0 | 989.2 ± 0.4 | 984.5 ± 0.4 | 979.8 ± 0.4 | – | – | – | 1410 ± 6 | 1.008 ± 0.013 | 0.929 ± 0.012 | 0.861 ± 0.012
[1], x2 = 0.1025 | 962.1 ± 0.5 | 957.4 ± 0.5 | 952.7 ± 0.5 | – | – | – | 1391 ± 6 | 0.924 ± 0.012 | 0.905 ± 0.06 | 0.808 ± 0.011
[1], x2 = 0.2009 | 936.5 ± 0.5 | 931.8 ± 0.5 | 927.2 ± 0.5 | – | – | – | 1372 ± 6 | 0.854 ± 0.012 | 0.792 ± 0.011 | 0.737 ± 0.01
[1], x2 = 0.3006 | 911.8 ± 0.6 | 907.2 ± 0.6 | 902.6 ± 0.6 | – | – | – | 1352 ± 6 | 0.793 ± 0.011 | 0.734 ± 0.01 | 0.693 ± 0.01
[1], x2 = 0.406 | 886.7 ± 0.6 | 882.2 ± 0.6 | 877.6 ± 0.6 | – | – | – | 1333 ± 5 | 0.75 ± 0.01 | 0.694 ± 0.01 | 0.654 ± 0.009
[1], x2 = 0.5043 | 864.4 ± 0.7 | 860.1 ± 0.7 | 855.4 ± 0.7 | – | – | – | 1314 ± 5 | 0.717 ± 0.01 | 0.664 ± 0.009 | 0.627 ± 0.009
[1], x2 = 0.6058 | 842.2 ± 0.7 | 837.8 ± 0.7 | 833.3 ± 0.7 | – | – | – | 1294 ± 5 | 0.689 ± 0.01 | 0.645 ± 0.009 | 0.605 ± 0.009
[1], x2 = 0.7026 | 821.9 ± 0.7 | 817.3 ± 0.8 | 813 ± 0.8 | – | – | – | 1275 ± 5 | 0.675 ± 0.009 | 0.634 ± 0.009 | 0.593 ± 0.009
[1], x2 = 0.8023 | 801.8 ± 0.8 | 797.4 ± 0.8 | 792.9 ± 0.8 | – | – | – | 1256 ± 5 | 0.667 ± 0.009 | 0.621 ± 0.009 | 0.584 ± 0.008
[1], x2 = 0.9053 | 782.1 ± 0.8 | 777.8 ± 0.8 | 773.4 ± 0.8 | – | – | – | 1236 ± 5 | 0.666 ± 0.009 | 0.622 ± 0.009 | 0.583 ± 0.008
[2], x2 = 0 | – | – | – | 1.5136 ± 0.0025 | 1.5112 ± 0.0025 | 1.5088 ± 0.0025 | – | – | – | –
[2], x2 = 0.1025 | – | – | – | 1.5023 ± 0.0025 | 1.5036 ± 0.0025 | 1.4978 ± 0.0025 | – | – | – | –
[2], x2 = 0.2009 | – | – | – | 1.4917 ± 0.0025 | 1.489 ± 0.0025 | 1.487 ± 0.0025 | – | – | – | –
[2], x2 = 0.3006 | – | – | – | 1.4813 ± 0.0025 | 1.4801 ± 0.0025 | 1.4766 ± 0.0025 | – | – | – | –
[2], x2 = 0.406 | – | – | – | 1.4706 ± 0.0025 | 1.4701 ± 0.0025 | 1.4659 ± 0.0025 | – | – | – | –
[2], x2 = 0.5043 | – | – | – | 1.4609 ± 0.0025 | 1.4586 ± 0.0025 | 1.4563 ± 0.0025 | – | – | – | –
[2], x2 = 0.6058 | – | – | – | 1.4516 ± 0.0025 | 1.4497 ± 0.0025 | 1.4467 ± 0.0025 | – | – | – | –
[2], x2 = 0.7026 | – | – | – | 1.4431 ± 0.0025 | 1.4408 ± 0.0025 | 1.4382 ± 0.0025 | – | – | – | –
[2], x2 = 0.8023 | – | – | – | 1.4351 ± 0.0025 | 1.4323 ± 0.0025 | 1.4301 ± 0.0025 | – | – | – | –
[2], x2 = 0.9053 | – | – | – | 1.4278 ± 0.0025 | 1.4242 ± 0.0025 | 1.4226 ± 0.0025 | – | – | – | –

c1ccccc1 [benzene] + CC1CCCCC1
x2 = 0
Conditions | mass density, 298.15 K [kg/m3] | mass density, 303.15 K [kg/m3] | mass density, 308.15 K [kg/m3] | refractive index, 298.15 K | refractive index, 303.15 K | refractive index, 308.15 K | speed of sound, 298.15 K [m/s] | viscosity, 298.15 K [mPa·s] | viscosity, 303.15 K [mPa·s] | viscosity, 308.15 K [mPa·s]
[1] | 873.4 ± 0.5 | 868.1 ± 0.5 | 862.7 ± 0.5 | – | – | – | 1302 ± 5 | 0.602 ± 0.008 | 0.56 ± 0.008 | 0.523 ± 0.007
[2] | – | – | – | 1.4971 ± 0.0009 | 1.4936 ± 0.0009 | 1.4903 ± 0.0009 | – | – | – | –

CC1CCCCC1 [methylcyclohexane] + COc1ccccc1
x1 = 1
Conditions | mass density, 298.15 K [kg/m3] | mass density, 303.15 K [kg/m3] | mass density, 308.15 K [kg/m3] | refractive index, 298.15 K | refractive index, 303.15 K | refractive index, 308.15 K | speed of sound, 298.15 K [m/s] | viscosity, 298.15 K [mPa·s] | viscosity, 303.15 K [mPa·s] | viscosity, 308.15 K [mPa·s]
[1] | 765 ± 0.9 | 760.7 ± 0.9 | 756.3 ± 0.9 | – | – | – | 1217 ± 5 | 0.676 ± 0.009 | 0.631 ± 0.009 | 0.59 ± 0.008
[2] | – | – | – | 1.4217 ± 0.0025 | 1.4192 ± 0.0025 | 1.4163 ± 0.0025 | – | – | – | –

CC1CCCCC1 [methylcyclohexane] + Cc1cc(C)cc(C)c1
x1 = 1
Conditions | mass density, 298.15 K [kg/m3] | mass density, 303.15 K [kg/m3] | mass density, 308.15 K [kg/m3] | refractive index, 298.15 K | refractive index, 303.15 K | refractive index, 308.15 K | speed of sound, 298.15 K [m/s] | viscosity, 298.15 K [mPa·s] | viscosity, 303.15 K [mPa·s] | viscosity, 308.15 K [mPa·s]
[1] | 765 ± 0.9 | 760.7 ± 0.9 | 756.3 ± 0.9 | – | – | – | 1217 ± 5 | 0.676 ± 0.009 | 0.631 ± 0.009 | 0.59 ± 0.008
[2] | – | – | – | 1.4217 ± 0.0025 | 1.4192 ± 0.0025 | 1.4163 ± 0.0025 | – | – | – | –
